Measurements reported in patent US20260297095A1, “NOVEL PYRROLOTRIAZINE DERIVATIVE AND USE THEREOF” (Pelemed Co., Ltd., priority 2024, published 2026).
One block for each molecule: values may come before it.

Experiments:
[1] = biological target: YES1 kinase (Homo sapiens, UniProt P07947); assay: YES1 kinase inhibition, ADP Glo assay (Promega); format: biochemical; settings: for YES1 kinase inhibition at 1 nM (in words) / inhibition at 0.001 µM: compound 1 nM; for inhibition at 0.001 µM: read-out: YES1 enzyme, % inhibition, 1 nM; for inhibition at 0.01 µM: compound 10 nM, read-out: YES1 enzyme, % inhibition, 10 nM; for inhibition at 0.1 µM: compound 100 nM, read-out: YES1 enzyme, % inhibition, 100 nM
Chain of YES1 kinase (P07947 whole entry): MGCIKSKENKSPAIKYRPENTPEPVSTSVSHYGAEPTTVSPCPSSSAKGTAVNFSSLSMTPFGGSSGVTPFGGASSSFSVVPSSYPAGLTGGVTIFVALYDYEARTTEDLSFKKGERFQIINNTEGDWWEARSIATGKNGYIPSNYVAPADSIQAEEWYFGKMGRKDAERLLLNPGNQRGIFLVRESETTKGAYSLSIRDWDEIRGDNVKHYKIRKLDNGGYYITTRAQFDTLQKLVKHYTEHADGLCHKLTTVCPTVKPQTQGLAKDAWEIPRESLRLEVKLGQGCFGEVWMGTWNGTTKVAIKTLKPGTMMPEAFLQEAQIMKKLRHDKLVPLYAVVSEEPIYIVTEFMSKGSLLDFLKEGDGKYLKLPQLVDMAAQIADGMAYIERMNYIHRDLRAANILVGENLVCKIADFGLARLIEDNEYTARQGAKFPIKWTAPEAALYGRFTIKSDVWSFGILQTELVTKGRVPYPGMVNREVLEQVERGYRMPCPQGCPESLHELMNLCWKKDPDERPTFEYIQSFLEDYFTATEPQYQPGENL
Method: To evaluate the inhibitory activity against YES1 kinase of the compound according to the present invention, ADP Glo assay (Promega) was used, and the following method was performed with reference to the Promega kinase enzyme system protocol. To proceed with the experiment, buffers A-F and compound dilution plates were required.
To prepare A.4X reaction buffer, 800 μl of 5X reaction buffer and 200 μl of distilled water were used. To prepare B.4X kinase buffer, 996.6 μl of A.4X reaction buffer, 2 μl of 0.1M DTT, and 3.2 μl of 2.5M MnCl2 were added and mixed. To prepare C.1X kinase buffer (containing 5% DMSO) used for compound dilution, 250 μl of B.4X kinase buffer, 700 μl of distilled water, and 50 μl of DMSO were added, so that the final DMSO concentration became 5%. Then, 10 mM compounds were diluted 100-fold to prepare 100 μM solutions, and then D.5X inhibitor solution was prepared so that the compound concentration became 5 uM. Using a 96-well plate, 5 μM compounds were 3-fold diluted using C.1X kinase buffer (containing 5% DMSO) to prepare compound plates with concentrations ranging from 0.25 μM to 5 μM. The resulting plates were stored at room temperature. To prepare E. 2.5X ATP/substrate mixture, 50 μl of B.4X kinase buffer, 50 μl of […], and 100 μl of substrate were mixed. To prepare F YES1 kinase enzyme solution, 35 μl of B.4X kinase buffer, 0.4 μl of YES1 enzyme, and 104.6 μl of distilled water were used. Once the diluted compound plates, ATP/substrate mixture, and YES1 kinase solution were all prepared, 3 μL each was transferred from the diluted compound plate to a luciferase 96-well white plate (Since the total volume of the ATP/substrate and YES1 kinase solution that reacts with the compound is 15 μL, the compounds were diluted 5-fold, making the final compound concentration 0.05 μM-1 μM). Then, 6 μL of F. YES1 Kinase Enzyme Solution was transferred to each well, pipetted 10 times to mix, and incubated at room temperature in a shaker for 10 minutes. Next, 6 μL of E. 2.5X ATP/Substrate Mixture was transferred to each well, pipetted 10 times to mix, and centrifuged at 12,000 rpm for 5 minutes. The plate was then incubated in a shaker at room temperature for 40 minutes. After that, 15 μL of ADP-Glo Reagent, dissolved at room temperature, was added to each well, pipetted 10 times, and incubated in a shaker at room temperature for 40 minutes. Finally, 30 μL of Kinase Detection Reagent, dissolved at room temperature, was added, pipetted 10 times, incubated in a shaker at room temperature for 30 minutes. Luminescence was measured using a luminescence plate reader. Then, the background value was subtracted from all measured values, and the YES1 kinase activity at compound concentrations of 1 nM, 10 nM, and 100 nM was calculated. The measured values were calculated as percentages using the average value of the negative control. Graphs were drawn using GraphPad Prism, and the enzyme activity was calculated as a percentage of YES1 kinase inhibition at compound concentrations of 1 nM, 10 nM, and 100 nM. IC50 values were obtained using Microsoft Excel.

[2] = tested on: KYSE-70 esophageal cancer cell line; assay: Cell growth inhibition of KYSE-70 (Sulforhodamine B); format: cell-based; settings: Homo sapiens; KYSE-70, 72 hours; read-out: KYSE70 GI50
Method: The cell line according to the present invention was selected as KYSE-70, an esophageal cancer cell line in which YES1 is amplified. The evaluation of cell growth inhibition was performed as follows.
KYSE-70 was cultured in RPMI-1640 (Capricorn) supplemented with 10% FBS (Cellgro). The cells were seeded 24 hours prior to compound treatment, into three 96-well F-bottom clear plates (Greiner), with 7,500 cells per well in 180 μL of medium. The 10 mM compound was diluted 100-fold in medium to prepare a 100 μM compound, which was then placed into a 96-well plate and further 3-fold diluted in medium to prepare a compound plate with concentrations ranging from 0.046 μM to 100 μM. 20 μL of each compound from the drug plate was added to the cell-seeded plates to achieve final concentrations of 0.0046 μM to 10 μM. At the same time, 50 μL of 33% trichloroacetic acid was injected into one plate and the plate was fixed by incubating at 4° C. This was referred to as the Do plate. Viable cells were measured 72 hours after compound treatment by injecting 50 μL of 33% trichloroacetic acid and incubating at 4° C. for more than 1 hour to fix the cells. This was referred to as the D3 plate. After the Do plate and D3 plates were washed 5 times with sterile water, 100 μL of 0.04% Sulforhodamine B solution in 1% acetic acid was added and reacted for 1 hour to stain the cells. After staining, the plates were washed 4 times with 1% acetic acid solution and completely dried. Then, the Sulforhodamine B bound to cellular proteins was completely dissolved with 10 mM Tris base solution (pH 10.5). The absorbance was measured at a wavelength of 510 nm using a microplate reader (TECAN, sunrise microplate reader). The analysis was performed using GraphPad Prism. The average absorbance of the Do plate was set to 0%, and the average absorbance of the negative control of the D3 plate was set to 100%, from which a graph was drawn and the GI50 values were calculated. Each test was performed twice.

- inhibition at 0.001 µM [1]: 11%
- inhibition at 0.01 µM [1]: 39%
- GI50 [2]: 100 to 1000 nM
Structure (SMILES): COc1cc(-c2cc(N3CCC(CO)CC3)n3ncnc(N)c23)ccc1NC(=O)OC(C)(C)C [Example 102, tert-butyl (4-(4-amino-7-(4-(hydroxymethyl)piperidin-1-yl)pyrrolo[2,1-f][1,2,4]triazin-5-yl)-2-methoxyphenyl)carbamate]
- YES1 kinase inhibition at 1 nM (in words) [1]: could be inhibited even at a low concentration of 1 nM

- inhibition at 0.01 µM [1]: 71%
- inhibition at 0.1 µM [1]: 90%
- GI50 [2]: ≤ 100 nM
Structure (SMILES): CNC1CCN(CCc2cc(-c3ccc(NC(=O)OC(C)(C)C)c(OC)c3)c3c(N)ncnn23)CC1 [Example 99, tert-butyl (4-(4-amino-7-(2-(4-(methylamino)piperidin-1-yl)ethyl)pyrrolo[2,1-f][1,2,4]triazin-5-yl)-2-methoxyphenyl)carbamate]

- inhibition at 0.01 µM [1]: 19%
- inhibition at 0.1 µM [1]: 77%
- GI50 [2]: 100 to 1000 nM
Structure (SMILES): CCN(CC)C1CCN(c2cc(-c3ccc(NC(=O)OC(C)(C)C)c(OC)c3)c3c(N)ncnn23)CC1 [Example 14, tert-butyl (4-(4-amino-7-(4-(diethylamino)piperidin-1-yl)pyrrolo[2,1-f][1,2,4]triazin-5-yl)-2-methoxyphenyl)carbamate]

The remaining lines, values behind:

Structure (SMILES): COc1cc(-c2cc(N3CCN(C4CC4)CC3)n3ncnc(N)c23)ccc1NC(=O)OC(C)(C)C [Example 17, tert-butyl (4-(4-amino-7-(4-cyclopropylpiperazin-1-yl)pyrrolo[2,1-f][1,2,4]triazin-5-yl)-2-methoxyphenyl)carbamate]
- inhibition at 0.01 µM [1]: 53%
- inhibition at 0.1 µM [1]: 59%
- GI50 [2]: 1000 to 10000 nM

Structure (SMILES): COc1cc(-c2cc(N3CC4(CCN(C)C4)C3)n3ncnc(N)c23)ccc1NC(=O)OC(C)(C)C [Example 39, tert-butyl (4-(4-amino-7-(6-methyl-2,6-diazaspiro[3.4]octan-2-yl)pyrrolo[2,1-f][1,2,4]triazin-5-yl)-2-methoxyphenyl)carbamate]
- inhibition at 0.01 µM [1]: 57%
- inhibition at 0.1 µM [1]: 89%
- GI50 [2]: ≤ 100 nM

Structure (SMILES): COc1cc(-c2cc(N3CCC4(CN(C)C4)C3)n3ncnc(N)c23)ccc1NC(=O)OC(C)(C)C [Example 37, tert-butyl (4-(4-amino-7-(2-methyl-2,6-diazaspiro[3.4]octan-6-yl)pyrrolo[2,1-f][1,2,4]triazin-5-yl)-2-methoxyphenyl)carbamate]
- inhibition at 0.01 µM [1]: 24%
- inhibition at 0.1 µM [1]: 69%
- GI50 [2]: 100 to 1000 nM

Structure (SMILES): COc1cc(-c2cc(N3CCC(CC(=O)O)CC3)n3ncnc(N)c23)ccc1NC(=O)OC(C)(C)C [Example 101, 2-(1-(4-amino-5-(4-((tert-butoxycarbonyl)amino)-3-methoxyphenyl)pyrrolo[2,1-f][1,2,4]triazin-7-yl)piperidin-4-yl)acetic Acid]
- YES1 kinase inhibition at 1 nM (in words) [1]: could be inhibited even at a low concentration of 1 nM
- inhibition at 0.001 µM [1]: 16%
- inhibition at 0.01 µM [1]: 40%
- GI50 [2]: > 10000 nM

Structure (SMILES): COc1cc(-c2cc(N3CC4CC3CC4N)n3ncnc(N)c23)ccc1NC(=O)OC(C)(C)C (centres unmarked) [Example 51, tert-butyl (4-(4-amino-7-(5-amino-2-azabicyclo[2.2.1]heptan-2-yl)pyrrolo[2,1-f][1,2,4]triazin-5-yl)-2-methoxyphenyl)carbamate]
- inhibition at 0.01 µM [1]: 70%
- inhibition at 0.1 µM [1]: 90%
- GI50 [2]: 100 to 1000 nM

Structure (SMILES): Nc1ncnn2c(N3CCC(N)CC3)cc(-c3ccc(Oc4ccccc4)cc3)c12 [Example 135, 7-(4-aminopiperidin-1-yl)-5-(4-phenoxyphenyl)pyrrolo[2,1-f][1,2,4]triazin-4-amine]
- inhibition at 0.01 µM [1]: 62%
- inhibition at 0.1 µM [1]: 87%
- GI50 [2]: ≤ 100 nM

Structure (SMILES): COc1cc(-c2cc(N3CCC4(CCCN4C)CC3)n3ncnc(N)c23)ccc1NC(=O)OC(C)(C)C [Example 24, tert-butyl (4-(4-amino-7-(1-methyl-1,8-diazaspiro[4.5]decan-8-yl)pyrrolo[2,1-f][1,2,4]triazin-5-yl)-2-methoxyphenyl)carbamate]
- inhibition at 0.01 µM [1]: 50%
- inhibition at 0.1 µM [1]: 82%
- GI50 [2]: 100 to 1000 nM
